For assay [1], the target named is T1, BRD4 (BDI_K57-E168) (Homo sapiens, UniProt O60885).
T1 construct: BD1: amino acids K57-E168; made in house
Nature of the assay: TR-FRET bromodomain binding assay, first bromodomain of BRD4. The conditions noted are these: His-tagged BD1, 100 nM Alexa647 probe; TR-FRET protocol A-E given per row. Summed up:
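His-tagged BRD4 BD1 (K57-E168), 8 nM, with 1 nM Eu-anti-His antibody and 100 nM Alexa647-labelled BET-inhibitor probe in pH 6.0 phosphate buffer, 2% DMSO. TR-FRET read after 1 h at room temperature. IC50 from 4-parameter fit, converted to Ki using probe Kd and concentration.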
Background: TR-FRET usually uses a lanthanide donor and a delayed reading to cut background.

Assay [2] has as its target T2, BRD4 (BDII_E352-M457) (Homo sapiens, UniProt O60885).
T2 construct: proliferation; Protocol; made in house
Description: TR-FRET bromodomain binding assay, second bromodomain of BRD4. The conditions noted are these: His-tagged BD2, 30 nM Alexa647 probe; TR-FRET protocol A-E given per row. Summed up: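 His-tagged BRD4 BD2 ([…]) competed against an Alexa647-labelled BET-inhibitor probe in TR-FRET. Buffer was 20 mM sodium phosphate pH 6.0, 50 mM NaCl, 1 mM EDTA, 0.01% Triton X-100, 1 mM DTT, with method D DMSO series of 2.5 mM–800 nM (stock range). IC50 from 4-parameter fit, Ki from probe Kd and concentration.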

The test system of assay [3] is breast cancer cell line MX-1. Description: MX-1 cell line proliferation assay. Type of assay: cell-based. The note with it: MX-1 cells, 3-day proliferation assay, Cell Titer Glo, read-out: Cellular proliferation EC50. How it is done: The impact of compounds of the Examples on cancer cell proliferation was determined using the breast cancer cell line MX-1 (ATCC) in a 3-day proliferation assay and the data are reported in Table 1. MX-1 cells were maintained in RPMI 1640 medium (Sigma) supplemented with 10% FBS at 37° C. and an atmosphere of 5% CO2. For compound testing, MX-1 cells were plated in 96-well black bottom plates at a density of 5000 cells/well in 90 μL of culture media and incubated at 37° overnight to allow cell adhesion and spreading. Compound dilution series were prepared in DMSO via a 3-fold serial dilution from 3 mM to 0.1 μM. The DMSO dilution series were then diluted 1:100 in phosphate buffered saline, and 10 μL of the resulted solution were added to the appropriate wells of the MX-1 cell plate. The final compound concentrations in the wells were 3, 1, 0.3, 0.1, 0.03, 0.01, 0.003, 0.001, 0.0003 and 0.0001 μM.
Luminescence readings from the Cell Titer Glo assay were normalized to the DMSO treated cells and analyzed using the GraphPad Prism software with sigmoidal curve fitting to obtain EC50s. The minimum significant ratio (MSR) was determined to evaluate assay reproducibility (Eastwood et al., (2006) J Biomol Screen, 11: 253-261).
(In ATP-based viability assays light output follows the ATP content of the culture.)

Where two headings read alike, the source gives them in different places.

Regarding `CCS(=O)(=O)C(C)c1ccc(Oc2ccc(F)cc2F)c(-c2cn(C)c3c(=O)[nH]ccc23)c1` (single isomer, unassigned) [Example 56], the Ki worked out at 13 nM in assay [1] and 18 nM in assay [2]. In addition, in assay [3] (Homo sapiens, MX1, 72 h), the EC50 was determined as 36 nM.
With `CCS(=O)(=O)C(C)c1ccc(Oc2ccc(F)cc2F)c(-c2cn(C)c3c(=O)[nH]ccc23)c1` (single isomer, unassigned) [Example 57], the Ki in assay [1] was found to be 14 nM; in assay [2], 37 nM. Besides, the EC50 in assay [3] stood at 66 nM.
In the case of `Cn1cc(-c2ccccc2Oc2ccccc2)c2cc[nH]c(=O)c21` [Example 1, 1-methyl-3-(2-phenoxyphenyl)-1,6-dihydro-7H-pyrrolo[2,3-c]pyridin-7-one], the inhibition constant (Ki) in assay [1] turned out to be 85 nM; in assay [2], 313 nM. For the same compound, the EC50 in assay [3] (Homo sapiens, MX1, 72 h) was 584 nM.
In the case of `CC(C)S(=O)(=O)Nc1ccc(Oc2ccc(F)cc2F)c(-c2cn(C)c3c(=O)[nH]ccc23)c1` [Example 3, N-[4-(2,4-difluorophenoxy)-3-(1-methyl-7-oxo-6,7-dihydro-1H-pyrrolo[2,3-c]pyridin-3-yl)phenyl]propane-2-sulfonamide], the Ki in assay [1] came to 26 nM; in assay [2], 43 nM. For the same compound, the EC50 in assay [3] (Homo sapiens, MX1, 72 h) stood at 161 nM.
Turning to `CCS(=O)(=O)Nc1ccc(Oc2ccc(Cl)cc2)c(-c2cn(C)c3c(=O)[nH]ccc23)c1` [Example 5, N-[4-(4-chlorophenoxy)-3-(1-methyl-7-oxo-6,7-dihydro-1H-pyrrolo[2,3-c]pyridin-3-yl)phenyl]ethanesulfonamide], the figures for the Ki in assay [1] and in assay [2] were 10 nM and 29 nM, respectively. Also, the EC50 in assay [3] (Homo sapiens, MX1, 72 h) was found to be 67 nM.
On the same counts, the results for `CCS(=O)(=O)Nc1ccc(O[C@H]2CC[C@H](OC)CC2)c(-c2cn(C)c3c(=O)[nH]ccc23)c1` [Example 6, N-{4-[(trans-4-methoxycyclohexyl)oxy]-3-(1-methyl-7-oxo-6,7-dihydro-1H-pyrrolo[2,3-c]pyridin-3-yl)phenyl}ethanesulfonamide] are 2.8 nM, 57 nM and 36 nM.
In the case of `CCS(=O)(=O)Nc1ccc(OC2CCOCC2)c(-c2cn(C)c3c(=O)[nH]ccc23)c1` [Example 7, N-[3-(1-methyl-7-oxo-6,7-dihydro-1H-pyrrolo[2,3-c]pyridin-3-yl)-4-(tetrahydro-2H-pyran-4-yloxy)phenyl]ethanesulfonamide], the figures for the Ki in assay [1] and in assay [2] were 4 nM and 16 nM, respectively. The EC50 in assay [3] (Homo sapiens, MX1, 72 h) amounted to 93 nM.
For `CCS(=O)(=O)Nc1ccc(OC2CCC(F)(F)CC2)c(-c2cn(C)c3c(=O)[nH]ccc23)c1` [Example 8, N-{4[(4,4-difluorocyclohexyl)oxy]-3-(1-methyl-7-oxo-6,7-dihydro-1H-pyrrolo[2,3-c]pyridin-3-yl)phenyl}ethanesulfonamide], the Ki in assay [1] was 1.6 nM; in assay [2], 6.4 nM. Further, in assay [3] (Homo sapiens, MX1, 72 h), the EC50 was found to be 33 nM.
As to `CCS(=O)(=O)Nc1ccc(O[C@H]2CC[C@@H](OC)CC2)c(-c2cn(C)c3c(=O)[nH]ccc23)c1` [Example 9, N-{4-[(cis-4-methoxycyclohexyl)oxy]-3-(1-methyl-7-oxo-6,7-dihydro-1H-pyrrolo[2,3-c]pyridin-3-yl)phenyl}ethanesulfonamide], the values for the Ki in assay [1] and in assay [2] were 12 nM and 29 nM, respectively. In addition, the EC50 in assay [3] (Homo sapiens, MX1, 72 h) stood at 128 nM.
On the same counts, the results for `CCS(=O)(=O)Nc1ccc(OC2COC2)c(-c2cn(C)c3c(=O)[nH]ccc23)c1` [Example 10, N-[3-(1-methyl-7-oxo-6,7-dihydro-1H-pyrrolo[2,3-c]pyridin-3-yl)-4-(oxetan-3-yloxy)phenyl]ethanesulfonamide] are 18 nM, 142 nM and 225 nM.
For the compound `Cn1cc(-c2cc(NS(C)(=O)=O)c(Oc3ccc(F)cc3F)cc2Oc2ccc(F)cc2F)c2cc[nH]c(=O)c21` [Example 13, N-[2,4-bis(2,4-difluorophenoxy)-5-(1-methyl-7-oxo-6,7-dihydro-1H-pyrrolo[2,3-c]pyridin-3-yl)phenyl]methanesulfonamide], the Ki in assay [1] was 173 nM; in assay [2], 213 nM. In addition, the EC50 in assay [3] (Homo sapiens, MX1, 72 h) is 136 nM.
For the compound `CCS(=O)(=O)Nc1ccc(OCC2CC2)c(-c2cn(C)c3c(=O)[nH]ccc23)c1C` [Example 14, N-[4-(cyclopropylmethoxy)-2-methyl-3-(1-methyl-7-oxo-6,7-dihydro-1H-pyrrolo[2,3-c]pyridin-3-yl)phenyl]ethanesulfonamide], the Ki in assay [1] is 73 nM; in assay [2] it was 1340 nM. In assay [3] (Homo sapiens, MX1, 72 h), the EC50 came to 506 nM.
In the same order, the values of `Cn1cc(-c2cc(S(C)(=O)=O)ccc2Oc2ccc(F)c(F)c2)c2cc[nH]c(=O)c21` [Example 19, 3-[2-(3,4-difluorophenoxy)-5-(methylsulfonyl)phenyl]-1-methyl-1,6-dihydro-7H-pyrrolo[2,3-c]pyridin-7-one] are 16 nM, 80 nM and 176 nM.
Regarding `Cn1cc(-c2cc(S(C)(=O)=O)ccc2OCC2CC2)c2cc[nH]c(=O)c21` [Example 20, 3-[2-(cyclopropylmethoxy)-5-(methylsulfonyl)phenyl]-1-methyl-1,6-dihydro-7H-pyrrolo[2,3-c]pyridin-7-one], the values for the Ki in assay [1] and in assay [2] were 18 nM and 165 nM, respectively. In addition, the EC50 in assay [3] (Homo sapiens, MX1, 72 h) came to 181 nM.
Consider `CCS(=O)(=O)Nc1ccc(Oc2ccc(F)cc2F)c(-c2cn(C)c3c(=O)[nH]c(CN4CCOCC4)cc23)c1` [Example 182, N-{4-(2,4-difluorophenoxy)-3-[1-methyl-5-(morpholin-4-ylmethyl)-7-oxo-6,7-dihydro-1H-pyrrolo[2,3-c]pyridin-3-yl]phenyl}ethanesulfonamide], for which the Ki is 29.2 nM in assay [1] and 99.9 nM in assay [2].
As for `CCS(=O)(=O)Nc1ccc(Oc2ccc(F)cc2F)c(-c2cn(C)c3c(=O)[nH]c(C(=O)N4CCOCC4)cc23)c1` [Example 191, N-{4-(2,4-difluorophenoxy)-3-[1-methyl-5-(morpholin-4-ylcarbonyl)-7-oxo-6,7-dihydro-1H-pyrrolo[2,3-c]pyridin-3-yl]phenyl}ethanesulfonamide], the Ki was found to be 7.63 nM in assay [1] and 54.6 nM in assay [2].
As for `CCS(=O)(=O)Nc1ccc(Oc2ccc(F)cc2F)c(-c2cn(C)c3c(=O)[nH]c(C(=O)N4CCC(O)CC4)cc23)c1` [Example 194, N-[4-(2,4-difluorophenoxy)-3-{5-[(4-hydroxypiperidin-1-yl)carbonyl]-1-methyl-7-oxo-6,7-dihydro-1H-pyrrolo[2,3-c]pyridin-3-yl]phenyl}ethanesulfonamide], the values for the Ki in assay [1] and in assay [2] were 10.5 nM and 68.5 nM, respectively.
With `CCS(=O)(=O)Nc1ccc(Oc2ccc(F)cc2F)c(-c2cn(C)c3c(=O)[nH]c(C(=O)NCCN4CCCCC4)cc23)c1` [Example 198, 3-{2-(2,4-difluorophenoxy)-5-[(ethylsulfonyl)amino]phenyl}-1-methyl-7-oxo-N-[2-(piperidin-1-yl)ethyl]-6,7-dihydro-1H-pyrrolo[2,3-c]pyridine-5-carboxamide], the Ki in assay [1] was determined as 3.18 nM; in assay [2] it was 10.9 nM.
On the same counts, the results for `CCS(=O)(=O)Nc1ccc(Oc2ccc(F)cc2F)c(-c2cn(C)c3c(=O)[nH]c(C(=O)NCc4ccoc4)cc23)c1` [Example 201, 3-{2-(2,4-difluorophenoxy)-5-[(ethylsulfonyl)amino]phenyl}-N-(furan-3-ylmethyl)-1-methyl-7-oxo-6,7-dihydro-1H-pyrrolo[2,3-c]pyridine-5-carboxamide] are 3.47 nM and 11.4 nM.

The Ki is the equilibrium dissociation constant of an inhibitor or competing ligand from its target. Read a low Ki as tighter binding.
